Laboratory results from patent US12624067B2, “Cyclic peptide, cell scaffold material, cell separating material, and medium” (FUJIFILM Corporation, priority 2019, dated 2026).
Numbered stars: 1 amine (or outer) side, 2 acyl side, 3 side chain; on linkers, the order of the positions; unused ones are H or OH. Bridge positions count the residues as written; N and C are the ends. Square brackets hold non-standard residues; d marks the D form. Peptide text beside a SMILES is read from it. Pen = CC(C)(S)[C@H](N)C(=O)O; hCys = N[C@@H](CCS)C(=O)O; Orn = NCCC[C@H](N)C(=O)O; Dab = NCC[C@H](N)C(=O)O; X1 = O=C(C[*:1])[*:2]; X2 = O=C(C[*:2])[*:1]

Key:
human integrin αvβ5 = human integrin αvβ5 (Homo sapiens, UniProt P06756+P18084); experiment: Evaluation of integrin binding property (surface plasmon resonance, Biacore 3000, immobilized cyclic peptide); settings: peptide immobilized on CM5 sensor chip; human integrin αvβ5 30-1,000 nM, 25° C., HEPES buffer with 5 mM magnesium chloride; read-out: Integrin binding property (dissociation constant)
Outline: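 Cyclic peptides amine-coupled to a CM5 chip via EDC/NHS, with a blank reference channel; integrin injected 10 min at 25 °C at 30, 100, 300 and 1,000 nM in HEPES pH 7.4, 150 mM NaCl, 5 mM MgCl2, then 30 min buffer flow, EDTA regeneration. Kd from reference-subtracted responses, graded by category.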

[1] = Evaluation of molecule stability (alkali treatment, LC/MS residual rate); format: physicochemical; settings: 500 μM peptide plus equivalent of 1 M sodium hydroxide, 15° C., 20 minutes, LC/MS peak area
Outline: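 Cyclic peptide at 500 μM in water treated with an equivalent of 1 M NaOH for 20 minutes at 15° C. Residual rate is the total LC/MS peak area after treatment relative to that before treatment, set as 100%. Analysis on a C18 column at 45° C with ammonium formate pH 3 eluents and ESI detection.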

Sequence of human integrin αvβ5 (P06756 31-889 limits assumed): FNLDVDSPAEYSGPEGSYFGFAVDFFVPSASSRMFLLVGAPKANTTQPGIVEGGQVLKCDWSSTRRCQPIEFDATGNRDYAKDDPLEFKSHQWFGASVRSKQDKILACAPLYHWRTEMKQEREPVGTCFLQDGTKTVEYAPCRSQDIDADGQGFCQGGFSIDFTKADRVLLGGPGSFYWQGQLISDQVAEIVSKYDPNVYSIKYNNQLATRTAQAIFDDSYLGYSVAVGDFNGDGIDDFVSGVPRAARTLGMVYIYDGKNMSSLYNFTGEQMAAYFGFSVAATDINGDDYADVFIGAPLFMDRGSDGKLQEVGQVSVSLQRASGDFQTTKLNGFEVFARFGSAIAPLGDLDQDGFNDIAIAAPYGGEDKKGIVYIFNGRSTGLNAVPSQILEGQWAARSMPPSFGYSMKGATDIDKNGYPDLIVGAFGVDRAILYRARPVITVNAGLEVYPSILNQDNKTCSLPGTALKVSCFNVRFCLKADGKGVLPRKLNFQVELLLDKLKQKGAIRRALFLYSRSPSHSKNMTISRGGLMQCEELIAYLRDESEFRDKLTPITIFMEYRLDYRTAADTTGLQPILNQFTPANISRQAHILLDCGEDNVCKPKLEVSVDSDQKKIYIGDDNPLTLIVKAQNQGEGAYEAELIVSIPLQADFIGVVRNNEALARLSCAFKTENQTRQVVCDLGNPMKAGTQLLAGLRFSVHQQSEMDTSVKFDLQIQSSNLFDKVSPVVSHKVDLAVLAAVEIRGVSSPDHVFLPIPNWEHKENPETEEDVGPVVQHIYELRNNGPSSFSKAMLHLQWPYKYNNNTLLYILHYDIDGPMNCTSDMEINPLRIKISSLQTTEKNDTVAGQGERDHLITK
Sequence of human integrin αvβ5 (P06756 891-1048 partner limits assumed): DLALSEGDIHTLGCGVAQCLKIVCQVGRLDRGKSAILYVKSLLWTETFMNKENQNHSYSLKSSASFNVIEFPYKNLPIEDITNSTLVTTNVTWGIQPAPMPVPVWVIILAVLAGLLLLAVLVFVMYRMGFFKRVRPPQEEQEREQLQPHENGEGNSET
Sequence of human integrin αvβ5 (P18084 24-799): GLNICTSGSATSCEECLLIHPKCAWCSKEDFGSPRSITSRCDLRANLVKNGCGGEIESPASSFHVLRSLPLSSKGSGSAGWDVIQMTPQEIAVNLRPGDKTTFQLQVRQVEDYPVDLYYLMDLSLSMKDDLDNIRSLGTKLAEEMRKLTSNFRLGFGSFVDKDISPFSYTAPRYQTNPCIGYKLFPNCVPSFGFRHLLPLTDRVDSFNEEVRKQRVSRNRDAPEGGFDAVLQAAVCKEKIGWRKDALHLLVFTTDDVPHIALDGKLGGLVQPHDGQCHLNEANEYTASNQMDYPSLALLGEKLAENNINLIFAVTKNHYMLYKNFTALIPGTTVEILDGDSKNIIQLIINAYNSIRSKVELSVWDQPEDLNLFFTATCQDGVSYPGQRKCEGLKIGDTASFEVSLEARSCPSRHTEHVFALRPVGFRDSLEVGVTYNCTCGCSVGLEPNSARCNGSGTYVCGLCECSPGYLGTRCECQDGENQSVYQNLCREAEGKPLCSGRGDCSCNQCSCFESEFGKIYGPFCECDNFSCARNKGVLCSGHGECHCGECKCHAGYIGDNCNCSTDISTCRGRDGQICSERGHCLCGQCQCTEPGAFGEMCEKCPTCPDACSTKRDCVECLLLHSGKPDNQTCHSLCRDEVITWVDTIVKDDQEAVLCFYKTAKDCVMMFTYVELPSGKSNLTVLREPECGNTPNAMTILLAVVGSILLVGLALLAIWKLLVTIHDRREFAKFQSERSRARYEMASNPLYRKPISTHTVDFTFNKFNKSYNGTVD

Kd (human integrin αvβ5) [nM] | SMILES | Molecule stability (cyclic peptide residual rate) [1]
50 to 100 | CC[C@H](C)[C@@H]1NC(=O)CSCC[C@@H](C(=O)N[C@@H](CCCCN)C(=O)N[C@@H](CCCCN)C(=O)N[C@@H](CCCCN)C(=O)O)NC(=O)[C@H](Cc2ccc(O)cc2)NC(=O)[C@@H]2CCCCNC(=O)CSCC[C@H](NC1=O)C(=O)N[C@@H](CCCNC(=N)N)C(=O)NCC(=O)N[C@@H](CC(=O)O)C(=O)N2 [Cyclic peptide 32] ({CH2CO}-I[hCys]RGDKY[hCys]KKK-OH; linker 2-6 via X1; thioether N-8) | A (The residual rate of the cyclic peptide is 70% or more.)
< 50 | CC[C@H](C)[C@@H]1NC(=O)CSCC[C@@H](C(=O)N[C@@H](C)C(=O)N[C@@H](CCCCN)C(=O)N[C@@H](CCCCN)C(=O)N[C@@H](CCCCN)C(=O)O)NC(=O)[C@H](Cc2ccccc2)NC(=O)[C@@H]2CCCCNC(=O)CSCC[C@H](NC1=O)C(=O)N[C@@H](CCCNC(=N)N)C(=O)NCC(=O)N[C@@H](CC(=O)O)C(=O)N2 [Cyclic peptide 35] ({CH2CO}-I[hCys]RGDKF[hCys]AKKK-OH; linker 2-6 via X1; thioether N-8) | A (The residual rate of the cyclic peptide is 70% or more.)
< 50 | N=C(N)NCCC[C@@H]1NC(=O)[C@@H]2CCSCC(=O)NCCC[C@H](NC(=O)[C@H](CC(=O)O)NC(=O)CNC1=O)C(=O)N[C@@H](Cc1ccccc1)C(=O)N[C@H](C(=O)N[C@@H](CCCCN)C(=O)N[C@@H](CCCCN)C(=O)N[C@@H](CCCCN)C(=O)O)CCSCC(=O)N[C@@H](CC(=O)O)C(=O)N2 [Cyclic peptide 42] ({CH2CO}-D[hCys]RGD[Orn]F[hCys]KKK-OH; linker 2-6 via X1; thioether N-8) | A (The residual rate of the cyclic peptide is 70% or more.)
< 50 | C[C@H](NC(=O)[C@@H]1CCSCC(=O)N[C@@H](CCC(=O)O)C(=O)N[C@H]2CCSCC(=O)NCCCC[C@H](NC(=O)[C@H](CC(=O)O)NC(=O)CNC(=O)[C@H](CCCNC(=N)N)NC2=O)C(=O)N[C@@H](Cc2ccccc2)C(=O)N1)C(=O)N[C@@H](CCCCN)C(=O)N[C@@H](CCCCN)C(=O)N[C@@H](CCCCN)C(=O)O [Cyclic peptide 46] ({CH2CO}-E[hCys]RGDKF[hCys]AKKK-OH; linker 2-6 via X1; thioether N-8) | A (The residual rate of the cyclic peptide is 70% or more.)
< 50 | CC[C@H](C)[C@@H]1NC(=O)CSC[C@@H](C(=O)N[C@@H](CCCCN)C(=O)N[C@@H](CCCCN)C(=O)N[C@@H](CCCCN)C(=O)O)NC(=O)[C@H](Cc2ccccc2)NC(=O)[C@@H]2CCSCC(=O)NCCC[C@H](NC1=O)C(=O)N[C@@H](CCCNC(=N)N)C(=O)NCC(=O)N[C@@H](CC(=O)O)C(=O)N2 [Cyclic peptide 15] ({CH2CO}-I[Orn]RGD[hCys]FCKKK-OH; linker 2-6 via X2; thioether N-8) | A (The residual rate of the cyclic peptide is 70% or more.)
< 50 | C[C@H](NC(=O)[C@@H]1CCSCC(=O)N[C@@H](CCC(=O)O)C(=O)N[C@H]2CCSCC(=O)NCCC[C@H](NC(=O)[C@H](CC(=O)O)NC(=O)CNC(=O)[C@H](CCCNC(=N)N)NC2=O)C(=O)N[C@@H](Cc2ccccc2)C(=O)N1)C(=O)N[C@@H](CCCCN)C(=O)N[C@@H](CCCCN)C(=O)N[C@@H](CCCCN)C(=O)O [Cyclic peptide 47] ({CH2CO}-E[hCys]RGD[Orn]F[hCys]AKKK-OH; linker 2-6 via X1; thioether N-8) | A (The residual rate of the cyclic peptide is 70% or more.)
< 50 | CC(C)[C@@H]1NC(=O)CSCC[C@@H](C(=O)N[C@@H](CCCCN)C(=O)N[C@@H](CCCCN)C(=O)N[C@@H](CCCCN)C(=O)O)NC(=O)[C@H](Cc2ccccc2)NC(=O)[C@@H]2CCSCC(=O)NCCC[C@H](NC1=O)C(=O)N[C@@H](CCCNC(=N)N)C(=O)NCC(=O)N[C@@H](CC(=O)O)C(=O)N2 [Cyclic peptide 38] ({CH2CO}-V[Orn]RGD[hCys]F[hCys]KKK-OH; linker 2-6 via X2; thioether N-8) | A (The residual rate of the cyclic peptide is 70% or more.)
50 to 100 | CC[C@H](C)[C@@H]1NC(=O)CSCC[C@@H](C(=O)N[C@@H](CCCCN)C(=O)N[C@@H](CCCCN)C(=O)N[C@@H](CCCCN)C(=O)O)NC(=O)[C@H](Cc2ccccc2)NC(=O)[C@@H]2CCNC(=O)CSCC[C@H](NC1=O)C(=O)N[C@@H](CCCNC(=N)N)C(=O)NCC(=O)N[C@@H](CC(=O)O)C(=O)N2 [Cyclic peptide 7] ({CH2CO}-I[hCys]RGD[Dab]F[hCys]KKK-OH; linker 2-6 via X1; thioether N-8) | A (The residual rate of the cyclic peptide is 70% or more.)
100 to 200 | CC[C@H](C)[C@@H]1NC(=O)CSCC[C@@H](C(=O)N[C@@H](CCCCN)C(=O)N[C@@H](CCCCN)C(=O)N[C@@H](CCCCN)C(=O)O)NC(=O)[C@H](Cc2ccccc2)NC(=O)[C@@H]2CCSCC(=O)NCC[C@H](NC1=O)C(=O)N[C@@H](CCCNC(=N)N)C(=O)NCC(=O)N[C@@H](CC(=O)O)C(=O)N2 [Cyclic peptide 2] ({CH2CO}-I[Dab]RGD[hCys]F[hCys]KKK-OH; linker 2-6 via X2; thioether N-8) | A (The residual rate of the cyclic peptide is 70% or more.)
< 50 | CC(C)[C@@H]1NC(=O)CSCC[C@@H](C(=O)N[C@@H](CCCCN)C(=O)N[C@@H](CCCCN)C(=O)N[C@@H](CCCCN)C(=O)O)NC(=O)[C@H](Cc2ccccc2)NC(=O)[C@@H]2CCCCNC(=O)CSCC[C@H](NC1=O)C(=O)N[C@@H](CCCNC(=N)N)C(=O)NCC(=O)N[C@@H](CC(=O)O)C(=O)N2 [Cyclic peptide 28] ({CH2CO}-V[hCys]RGDKF[hCys]KKK-OH; linker 2-6 via X1; thioether N-8) | A (The residual rate of the cyclic peptide is 70% or more.)
50 to 100 | C[C@H](NC(=O)[C@@H]1CCCCNC(=O)CSCC[C@H](NC(=O)[C@H](CCCCN)NC(=O)[C@H](CCCCN)NC(=O)[C@@H](N)CCCCN)C(=O)N[C@H]2CCSCC(=O)NCCCC[C@H](NC(=O)[C@H](CC(=O)O)NC(=O)CNC(=O)[C@H](CCCNC(=N)N)NC2=O)C(=O)N[C@@H](Cc2ccccc2)C(=O)N1)C(=O)O [Cyclic peptide 37] (H-KKK[hCys][hCys]RGDKFKA-OH; linker 4-11, 5-9 via X1) | A (The residual rate of the cyclic peptide is 70% or more.)
< 50 | N=C(N)NCCC[C@@H]1NC(=O)[C@@H]2CCSCC(=O)NCCCC[C@H](NC(=O)[C@H](CC(=O)O)NC(=O)CNC1=O)C(=O)N[C@@H](Cc1ccccc1)C(=O)N[C@H](C(=O)N[C@@H](CCCCN)C(=O)N[C@@H](CCCCN)C(=O)N[C@@H](CCCCN)C(=O)O)CCSCC(=O)N[C@@H](CCC(=O)O)C(=O)N2 [Cyclic peptide 30] ({CH2CO}-E[hCys]RGDKF[hCys]KKK-OH; linker 2-6 via X1; thioether N-8) | A (The residual rate of the cyclic peptide is 70% or more.)
< 50 | CC1(C)SCC(=O)N[C@@H](CCC(=O)O)C(=O)N[C@H]2CCCNC(=O)CSCC[C@H](NC(=O)[C@H](CC(=O)O)NC(=O)CNC(=O)[C@H](CCCNC(=N)N)NC2=O)C(=O)N[C@@H](Cc2ccccc2)C(=O)N[C@@H]1C(=O)N[C@@H](CCCCN)C(=O)N[C@@H](CCCCN)C(=O)N[C@@H](CCCCN)C(=O)O [Cyclic peptide 24] ({CH2CO}-E[Orn]RGD[hCys]F[Pen]KKK-OH; linker 2-6 via X2; thioether N-8) | A (The residual rate of the cyclic peptide is 70% or more.)
